Values joined by “and” are separate entries in the source; they are usually repeats but may differ in a detail not shown here. Equal values may be shown once. Toxic doses and inconclusive results are not listed.
Test system: P388 leukemia ip, CD2F1 mice, survival T/C
Test: NCI In Vivo Anticancer Drug Screen. Data for tumor model P388 Leukemia (intraperitoneal) in CD2F1 (CDF1) mice
Settings: endpoint: median survival time, higher = longer survival
Procedure, shortened: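 Mice carrying the transplanted tumor received test compound or vehicle. Survival was recorded in each group, and the value is the treated-group measurement divided by that of the vehicle-treated control group.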

[1] = dose: 12.5 mg/kg/injection, schedule: Q01DX009 (ip), vehicle: saline
[2] = dose: 25.0 mg/kg/injection, schedule: Q01DX009 (ip), vehicle: saline
[3] = dose: 50.0 mg/kg/injection, schedule: Q01DX009 (ip), vehicle: saline
[4] = dose: 200.0 mg/kg/injection, schedule: Q01DX009 (ip), vehicle: saline with Tween-80
[5] = dose: 400.0 mg/kg/injection, schedule: Q04DX003 (ip), vehicle: saline with Tween-80
[6] = dose: 12.5 mg/kg/injection, schedule: Q01DX005 (ip), vehicle: saline with Tween-80
[7] = dose: 25.0 mg/kg/injection, schedule: Q01DX005 (ip), vehicle: saline with Tween-80

Nc1ncnc2c1ncn2C1OC(CO)C(O)C1O (stereo not drawn) was tested, and the T/C (dose: 1.25 mg/kg/injection, schedule: Q03HX016 (ip), vehicle: saline) was 113 % of control, the T/C (dose: 1.56 mg/kg/injection, schedule: Q01DX009 (ip), vehicle: saline) was 116 % of control and the T/C (dose: 2.5 mg/kg/injection, schedule: Q03HX016 (ip), vehicle: saline) was 122 % of control. For the same molecule, the T/C (dose: 3.12 mg/kg/injection, schedule: Q01DX009 (ip), vehicle: saline) was 122 % of control, the T/C (dose: 6.25 mg/kg/injection, schedule: Q01DX009 (ip), vehicle: saline) was 119 % of control and 104 % of control and the T/C (dose: 9.0 mg/kg/injection, schedule: Q01DX009 (ip), vehicle: saline with Tween-80) was 114 % of control. For the same molecule, the T/C (dose: 12.5 mg/kg/injection, schedule: Q01DX009 (ip), vehicle: saline with Tween-80) was 118 % of control, the T/C [1] was 103 % of control and the T/C (dose: 12.5 mg/kg/injection, schedule: Q03HX016 (ip), vehicle: Klucel (hydroxypropylcellulose) (HPC)) was 110 % of control. The T/C (dose: 14.0 mg/kg/injection, schedule: Q01DX009 (ip), vehicle: saline with Tween-80) was 120 % of control, the T/C (dose: 20.0 mg/kg/injection, schedule: Q01DX009 (ip), vehicle: saline) was 103 % of control and the T/C (dose: 20.0 mg/kg/injection, schedule: Q03HX016 (ip), vehicle: saline) was 122 % of control. The T/C [2] was 103 % of control, the T/C (dose: 25.0 mg/kg/injection, schedule: Q03HX016 (ip), vehicle: Klucel (hydroxypropylcellulose) (HPC)) was 120 % of control and the T/C (dose: 25.0 mg/kg/injection, schedule: Q04DX003 (ip), vehicle: Klucel (hydroxypropylcellulose) (HPC)) was 105 % of control. For the same molecule, the T/C (dose: 25.0 mg/kg/injection, schedule: Q04DX003 (ip), vehicle: saline sonified) was 118 % of control, the T/C (dose: 32.0 mg/kg/injection, schedule: Q01DX009 (ip), vehicle: Klucel (hydroxypropylcellulose) (HPC)) was 100 % of control and 102 % of control and the T/C (dose: 40.0 mg/kg/injection, schedule: Q01DX009 (ip), vehicle: saline) was 115 % of control and 118 % of control. The T/C (dose: 50.0 mg/kg/injection, schedule: Q01DX009 (ip), vehicle: saline sonified) was 123 % of control, the T/C [3] was 99 % of control and the T/C (dose: 50.0 mg/kg/injection, schedule: Q04DX003 (ip), vehicle: Klucel (hydroxypropylcellulose) (HPC)) was 97 % of control. The T/C (dose: 50.0 mg/kg/injection, schedule: Q04DX003 (ip), vehicle: saline sonified) was 122 % of control, the T/C (dose: 64.0 mg/kg/injection, schedule: Q01DX009 (ip), vehicle: Klucel (hydroxypropylcellulose) (HPC)) was 102 % of control and 97 % of control and the T/C (dose: 75.0 mg/kg/injection, schedule: Q01DX009 (ip), vehicle: saline sonified) was 95 % of control. For the same molecule, the T/C (dose: 75.0 mg/kg/injection, schedule: Q01DX009 (ip), vehicle: saline with Tween-80) was 72 % of control, the T/C (dose: 78.6 mg/kg/injection, schedule: Q01DX005 (ip), vehicle: water) was 106 % of control and the T/C (dose: 78.6 mg/kg/injection, schedule: Q01DX009 (ip), vehicle: water) was 100 % of control. The T/C (dose: 80.0 mg/kg/injection, schedule: Q01DX009 (ip), vehicle: saline) was 122 % of control, the T/C (dose: 100.0 mg/kg/injection, schedule: Q01DX009 (ip), vehicle: saline) was 122 % of control and 73 % of control and the T/C (dose: 100.0 mg/kg/injection, schedule: Q04DX003 (ip), vehicle: Klucel (hydroxypropylcellulose) (HPC)) was 96 % of control. The T/C (dose: 100.0 mg/kg/injection, schedule: Q04DX003 (ip), vehicle: saline sonified) was 110 % of control, the T/C (dose: 118.0 mg/kg/injection, schedule: Q01DX005 (ip), vehicle: water) was 99 % of control and the T/C (dose: 118.0 mg/kg/injection, schedule: Q01DX009 (ip), vehicle: water) was 99 % of control. For the same molecule, the T/C (dose: 128.0 mg/kg/injection, schedule: Q01DX009 (ip), vehicle: Klucel (hydroxypropylcellulose) (HPC)) was 101 % of control and 93 % of control, the T/C (dose: 177.0 mg/kg/injection, schedule: Q01DX005 (ip), vehicle: water) was 99 % of control and the T/C (dose: 177.0 mg/kg/injection, schedule: Q01DX009 (ip), vehicle: water) was 111 % of control. For the same molecule, the T/C [4] was 115 % of control, the T/C (dose: 200.0 mg/kg/injection, schedule: Q03HX016 (ip), vehicle: Klucel (hydroxypropylcellulose) (HPC)) was 154 % of control and the T/C (dose: 200.0 mg/kg/injection, schedule: Q04DX003 (ip), vehicle: Klucel (hydroxypropylcellulose) (HPC)) was 98 % of control. The T/C (dose: 200.0 mg/kg/injection, schedule: Q04DX003 (ip), vehicle: saline sonified) was 110 % of control, the T/C (dose: 256.0 mg/kg/injection, schedule: Q01DX009 (ip), vehicle: Klucel (hydroxypropylcellulose) (HPC)) was 99 % of control and 88 % of control and the T/C (dose: 264.0 mg/kg/injection, schedule: Q04DX003 (ip), vehicle: saline with Tween-80) was 121 % of control. The T/C (dose: 266.0 mg/kg/injection, schedule: Q01DX005 (ip), vehicle: water) was 115 % of control, the T/C (dose: 266.0 mg/kg/injection, schedule: Q01DX009 (ip), vehicle: saline with Tween-80) was 121 % of control and the T/C (dose: 266.0 mg/kg/injection, schedule: Q01DX009 (ip), vehicle: water) was 113 % of control. For the same molecule, the T/C (dose: 400.0 mg/kg/injection, schedule: Q01DX005 (ip), vehicle: water) was 108 % of control, the T/C (dose: 400.0 mg/kg/injection, schedule: Q01DX009 (ip), vehicle: saline with Tween-80) was 121 % of control and the T/C (dose: 400.0 mg/kg/injection, schedule: Q01DX009 (ip), vehicle: saline) was 122 % of control. For the same molecule, the T/C (dose: 400.0 mg/kg/injection, schedule: Q01DX009 (ip), vehicle: water) was 117 % of control, the T/C (dose: 400.0 mg/kg/injection, schedule: Q03HX016 (ip), vehicle: Klucel (hydroxypropylcellulose) (HPC)) was 183 % of control and the T/C [5] was 117 % of control. For the same molecule, the T/C (dose: 512.0 mg/kg/injection, schedule: Q01DX009 (ip), vehicle: Klucel (hydroxypropylcellulose) (HPC)) was 101 % of control and 91 % of control, the T/C (dose: 600.0 mg/kg/injection, schedule: Q01DX009 (ip), vehicle: saline sonified) was 86 % of control and the T/C (dose: 600.0 mg/kg/injection, schedule: Q01DX009 (ip), vehicle: saline with Tween-80) was 111 % of control. For the same molecule, the T/C (dose: 900.0 mg/kg/injection, schedule: Q01DX009 (ip), vehicle: saline with Tween-80) was 94 % of control, the T/C (dose: 1000.0 mg/kg/injection, schedule: Q01DX009 (oral), vehicle: saline with Tween-80) was 101 % of control and the T/C (dose: 1.3 micrograms/kg/injection, schedule: Q#A X Z (ip), vehicle: water) was 91 % of control. For the same molecule, the T/C (dose: 1500.0 mg/kg/injection, schedule: Q01DX009 (oral), vehicle: saline with Tween-80) was 104 % of control, the T/C (dose: 2000.0 mg/kg/injection, schedule: Q01DX009 (oral), vehicle: saline with Tween-80) was 100 % of control and the T/C (dose: 13.4 micrograms/kg/injection, schedule: Q#A X Z (ip), vehicle: water) was 98 % of control. For the same molecule, the T/C (dose: 134.0 micrograms/kg/injection, schedule: Q#A X Z (ip), vehicle: water) was 98 % of control and the T/C (dose: 1340.0 micrograms/kg/injection, schedule: Q#A X Z (ip), vehicle: water) was 100 % of control.
In the case of Cc1nc2ccccc2c2c(N)cccc12, the T/C (dose: 25.0 mg/kg/injection, schedule: Q01DX005 (ip), vehicle: Klucel (hydroxypropylcellulose) (HPC)) was 105 % of control, the T/C (dose: 50.0 mg/kg/injection, schedule: Q01DX005 (ip), vehicle: Klucel (hydroxypropylcellulose) (HPC)) was 102 % of control and the T/C (dose: 100.0 mg/kg/injection, schedule: Q01DX005 (ip), vehicle: Klucel (hydroxypropylcellulose) (HPC)) was 98 % of control. For the same molecule, the T/C (dose: 200.0 mg/kg/injection, schedule: Q01DX005 (ip), vehicle: Klucel (hydroxypropylcellulose) (HPC)) was 105 % of control.
With COc1c(-c2ccc3c(c2)OCO3)oc2cc(O)cc(O)c2c1=O the T/C (dose: 6.25 mg/kg/injection, schedule: Q01DX005 (ip), vehicle: saline with Tween-80) was 100 % of control, the T/C [6] was 100 % of control and the T/C [7] was 104 % of control. For the same molecule, the T/C (dose: 100.0 mg/kg/injection, schedule: Q01DX005 (ip), vehicle: saline with Tween-80) was 89 % of control and the T/C (dose: 200.0 mg/kg/injection, schedule: Q01DX005 (ip), vehicle: saline with Tween-80) was 105 % of control.
For CCC(=O)Oc1ccc(/C=N/NC(N)=S)nc1, the T/C [1] was 166 % of control, the T/C [2] was 157 % of control and the T/C [3] was 158 % of control and 164 % of control.
With CCCCCCCCCCCC(=O)N(CCOC(=O)c1ccco1)CCOC(=O)c1ccco1 the T/C (dose: 50.0 mg/kg/injection, schedule: Q01DX009 (ip), vehicle: saline with Tween-80) was 108 % of control, the T/C (dose: 100.0 mg/kg/injection, schedule: Q01DX009 (ip), vehicle: saline with Tween-80) was 91 % of control and the T/C [4] was 87 % of control.
With CCOc1ccc2cc(S(=O)(=O)O)ccc2c1N the T/C (dose: 100.0 mg/kg/injection, schedule: Q04DX003 (ip), vehicle: saline with Tween-80) was 100 % of control, the T/C (dose: 200.0 mg/kg/injection, schedule: Q04DX003 (ip), vehicle: saline with Tween-80) was 90 % of control and the T/C [5] was 100 % of control.
Cc1cccc(/C=N/Nc2cc(C)c3ccccc3n2)n1 was tested, and the T/C [6] was 100 % of control, the T/C [7] was 93 % of control and the T/C (dose: 50.0 mg/kg/injection, schedule: Q01DX005 (ip), vehicle: saline with Tween-80) was 101 % of control and 104 % of control.

Reference: PubChem BioAssay AID330 (DTP/NCI, 2004)
